Experiments:
ING2 = assay: Western blot of endogenous ING2 associated with the CEF of MEL cells; format: cell-based, Murine; settings: differentiated MEL cells; H2O2 500 μM, 15 minutes
Procedure: FIG. 4. A) Exponentially growing MEL cells were irradiated with either 200 J/m of UV light or 10 Gy of gamma radiation. After 30 minutes the CEF was isolated and the subjected to SDS-PAGE followed by transfer of the separated proteins to a nitrocellulose membrane. Western blotting for endogenous ING2 and histone 4 proteins was performed. Representative western blots are shown. B) Exponentially growing MEL cells were incubated in the absence or presence of N-acetyl cysteine (NAC) (5 mM) for 4 hours prior to a control irradiation or exposed to 200 J/m of UV light before the isolation of the CEF. Differentiated MEL cells were incubated in the absence or presence of H2O2 (500 μM) for 15 minutes prior to the isolation of the CEF. Proteins in the CEF were subjected to SDS-PAGE followed by transfer to a nitrocellulose membrane. Western blotting for endogenous ING2 and histone 4 proteins was performed. Representative western blots are shown. C) MEL cells were preincubated with either vehicle, wortmannin (200 nM and 5 μM) or curcumin (100 μM) were irradiated with 200 J/m of UV light. After 30 minutes the CEF was isolated and proteins were subjected to SDS-PAGE followed by transfer to a nitrocellulose membrane. Western blotting for endogenous ING2 and histone 4 proteins was performed. Representative western blots are shown. D) The CEF from transiently transfected MEL cells with either pSuper or pSuper-IIβRNAi was prepared. Proteins in the CEF were subjected to SDS-PAGE followed by transfer to a nitrocellulose membrane. […] Proteins were analysed by standard western blotting procedures employing the following antibodies: anti-tubulin and anti-flag (both from Sigma), anti-actin (Chemicon International), anti-histone 4 (Upstate Biotechnology), anti-phospho p54, anti-phospho p46, anti-phospho p38, total p54, total p46 and total p38 (all from Cell Signalling Technology) anti-ING2, anti EGFP (Clontech), anti-type II β PIP kinase, anti-GST and anti-myc (both generated in house).

[1] = system: PtdIns(4,5)P2 in HeLa cells; assay: PtdIns(4,5)P2 levels visualised with GFP-PH domain of PLCdelta1 probe in HeLa cells; format: cell-based; settings: 600 microMolar H2O2, no recovery hours after stimulation
Text: Changes in intracellular PtdIns(4,5)P2 levels following stimulation with neurokinin A were visualised in real time using a fusion protein of GFP and the PH domain of PLCdelta1 as a probe. GFP PLC delta 1 is a highly specific in vivo probe for PIP2 in cells.
HeLa cells were transiently transfected with an expression plasmid encoding a fusion protein of GFP and the PH domain of PLCdelta1.
HeLa cells were transiently transfected with an expression plasmid encoding a fusion protein of GFP and the pleckstrin homology domain of PLCdelta1. GFP PLC delta1 is a highly specific in vivo probe for PtdIns(4,5)P2 in cells. Results are in FIG. 10.

## OO [H2O2]
ING2
  ING2 translocation to the CEF: stimulated
[1]
  PtdIns(4,5)P2 levels (GFP-PH probe at plasma membrane): sustained depletion

Source: patent publication US20100092456A1, “METHODS OF TREATMENT” (priority 2006, published 2010)
